Experiment: xn = mol fraction of the nth substance listed
Conditions: Liquid

CCCCCCCl [1-chlorohexane] + CCCCCCCC
mass density [kg/m3]
Conditions	x2 = 0	x2 = 0.1016	x2 = 0.1996	x2 = 0.3153	x2 = 0.3948	x2 = 0.4862	x2 = 0.5938	x2 = 0.6966	x2 = 0.794	x2 = 0.9001
308.15 K, 39620 kPa	–	–	–	–	–	–	–	–	–	735.19
318.15 K, 100 kPa	854.58	834.04	814.96	793.28	778.92	762.93	744.78	728.11	712.89	696.93
318.15 K, 2130 kPa	856.27	835.95	816.81	795.21	780.76	764.83	746.83	730.05	714.94	698.9
318.15 K, 4150 kPa	858.19	837.89	818.74	797.18	782.71	766.77	748.78	732.01	716.9	700.85
318.15 K, 6180 kPa	860.06	839.78	820.64	799.07	784.6	768.67	750.71	733.92	718.79	702.75
318.15 K, 8210 kPa	861.91	841.62	822.49	800.94	786.48	770.55	752.56	735.77	720.67	704.6
318.15 K, 10230 kPa	863.73	843.46	824.34	802.79	788.32	772.38	754.41	737.61	722.49	706.41
318.15 K, 11250 kPa	864.62	844.35	825.23	803.67	789.21	773.28	755.31	738.5	723.39	707.3
318.15 K, 12260 kPa	865.5	845.27	826.11	804.57	790.11	774.2	756.2	739.4	724.3	708.21
318.15 K, 14290 kPa	867.28	847.01	827.89	806.35	791.88	775.94	757.98	741.15	726.04	709.95
318.15 K, 16310 kPa	869	848.75	829.61	808.09	793.61	777.66	759.69	742.89	727.75	711.66
318.15 K, 18340 kPa	870.66	850.43	831.3	809.76	795.29	779.35	761.37	744.57	729.42	713.3
318.15 K, 20370 kPa	872.33	852.13	832.97	811.43	796.96	781.01	763.03	746.2	731.08	714.96
318.15 K, 22390 kPa	873.95	853.71	834.6	813.06	798.59	782.65	764.67	747.82	732.69	716.55
318.15 K, 24420 kPa	875.54	855.32	836.2	814.65	800.17	784.23	766.24	749.39	734.25	718.09
318.15 K, 26450 kPa	877.12	856.9	837.77	816.23	801.75	785.8	767.8	750.95	735.8	719.69
318.15 K, 28470 kPa	878.67	858.45	839.34	817.78	803.29	787.34	769.34	752.48	737.32	721.17
318.15 K, 29490 kPa	879.43	859.22	840.08	818.54	804.05	788.09	770.08	753.23	738.07	721.87
318.15 K, 30500 kPa	880.19	859.99	840.84	819.31	804.81	788.85	770.85	753.99	738.83	722.64
318.15 K, 32530 kPa	881.7	861.5	842.34	820.8	806.31	790.33	772.31	755.45	740.27	724.08
318.15 K, 34550 kPa	883.17	862.97	843.8	822.26	807.75	791.8	773.76	756.87	741.69	725.5
318.15 K, 36580 kPa	884.63	864.41	845.26	823.71	809.2	793.22	775.19	758.28	743.11	726.91
318.15 K, 38600 kPa	886.04	865.86	846.68	825.13	810.6	794.61	776.59	759.68	744.49	728.26
318.15 K, 39620 kPa	886.76	866.55	847.39	825.83	811.31	795.32	777.27	760.4	745.19	728.95
328.15 K, 100 kPa	845.18	824.75	–	784.31	770.08	754.25	736.27	719.76	704.68	688.86
328.15 K, 2130 kPa	847.12	826.75	807.96	786.36	772.17	756.35	738.33	721.87	706.7	690.84
328.15 K, 4150 kPa	849.17	828.82	810.05	788.45	774.26	758.45	740.42	723.96	708.79	692.91
328.15 K, 6180 kPa	851.16	830.83	812.05	790.48	776.28	760.49	742.45	725.98	710.81	694.93
328.15 K, 8210 kPa	853.13	832.8	814.05	792.45	778.27	762.48	744.42	728	712.79	696.92
328.15 K, 10230 kPa	855.02	834.72	815.97	794.38	780.21	764.41	746.38	729.93	714.74	698.84
328.15 K, 11250 kPa	855.98	835.67	816.92	795.34	781.17	765.37	747.33	730.88	715.68	699.79
328.15 K, 12260 kPa	856.91	836.61	817.87	796.3	782.13	766.33	748.28	731.81	716.64	700.74
328.15 K, 14290 kPa	858.76	838.48	819.73	798.16	784	768.18	750.17	733.7	718.5	702.6
328.15 K, 16310 kPa	860.59	840.3	821.56	799.99	785.83	770.03	752	735.52	720.32	704.39
328.15 K, 18340 kPa	862.35	842.06	823.33	801.75	787.59	771.78	753.76	737.29	722.07	706.15
328.15 K, 20370 kPa	864.12	843.84	825.11	803.54	789.37	773.56	755.51	739.04	723.83	707.88
328.15 K, 22390 kPa	865.82	845.55	826.81	805.24	791.08	775.27	757.24	740.74	725.52	709.57
328.15 K, 24420 kPa	867.51	847.24	828.51	806.94	792.78	776.96	758.91	742.4	727.18	711.21
328.15 K, 26450 kPa	869.18	848.91	830.19	808.59	794.43	778.61	760.54	744.05	728.79	712.83
328.15 K, 28470 kPa	870.8	850.52	831.8	810.22	796.05	780.22	762.15	745.64	730.38	714.38
328.15 K, 29490 kPa	871.6	851.32	832.59	811.01	796.83	781.01	762.93	746.43	731.16	715.18
328.15 K, 30500 kPa	872.4	852.13	833.4	811.81	797.63	781.8	763.73	747.21	731.95	715.96
328.15 K, 32530 kPa	873.95	853.71	834.95	813.36	799.19	783.35	765.25	748.74	733.44	717.46
328.15 K, 34550 kPa	875.49	855.25	836.5	814.87	800.71	784.87	766.77	750.23	734.96	718.95
328.15 K, 36580 kPa	877.05	856.79	838.03	816.42	802.23	786.39	768.27	751.74	736.44	720.42
328.15 K, 38600 kPa	878.53	858.28	839.51	817.9	803.7	787.85	769.73	753.2	737.86	721.85
328.15 K, 39620 kPa	879.31	859.03	840.27	818.64	804.43	788.56	770.44	753.9	738.58	722.55

From the NIST ThermoML archive (doi:10.1016/j.jct.2005.09.003)
